# Assay results taken from patent US20260232616A1, “USE OF SIVELESTAT IN ANALGESIA” (SHANGHAI HUILUN PHARMACEUTICAL CO., LTD., priority 2023, published 2026).
# Marks after values point to notes of the source that are not given here.
# Test system: rat model of postoperative pain
# Test: Mechanical allodynia testing in a rat model of postoperative pain (hind paw incision)
# Format: in vivo
# Conditions: for Mechanical allodynia threshold (PWT (g)): single dose
# [1] = Sivelestat sodium 100 mg/kg IP, 0.5 h
# [2] = Sivelestat sodium 100 mg/kg IP, 1 h
# [3] = Sivelestat sodium 100 mg/kg IP, 2 h
# [4] = Sivelestat sodium 150 mg/kg IP, 0.5 h
# [5] = Sivelestat sodium 150 mg/kg IP, 1 h
# [6] = Sivelestat sodium 150 mg/kg IP, 2 h
# [7] = Sivelestat sodium 150 mg/kg IP, 6 h
# [8] = Sivelestat sodium 200 mg/kg IP, 0.5 h
# [9] = Sivelestat sodium 200 mg/kg IP, 1 h
# [10] = Sivelestat sodium 200 mg/kg IP, 2 h
# [11] = Sivelestat sodium 300 mg/kg IP, 0.5 h
# [12] = Sivelestat sodium 300 mg/kg IP, 1 h
# [13] = Sivelestat sodium 300 mg/kg IP, 2 h
smiles,measurement,setting,value
"CC(C)(C)C(=O)Oc1ccc(S(=O)(=O)Nc2ccccc2C(=O)NCC(=O)O)cc1 [Sivelestat sodium, sivelestat sodium]",% MPE (anti-allodynic effect),[1],25.2* %
same,% MPE (anti-allodynic effect),[2],42.4*** %
same,% MPE (anti-allodynic effect),[3],44.1*** %
same,Mechanical allodynia threshold (PWT (g)),[1],5.5 g
same,Mechanical allodynia threshold (PWT (g)),[2],7.8 g
same,Mechanical allodynia threshold (PWT (g)),[3],8.3 g
same,% MPE (anti-allodynic effect),[4],31.4*** %
same,% MPE (anti-allodynic effect),[5],51.1*** %
same,% MPE (anti-allodynic effect),[6],48.4*** %
same,% MPE (anti-allodynic effect),[7],11.3%
same,Mechanical allodynia threshold (PWT (g)),[4],6.3 g
same,Mechanical allodynia threshold (PWT (g)),[5],8.9 g
same,Mechanical allodynia threshold (PWT (g)),[6],8.8 g
same,Mechanical allodynia threshold (PWT (g)),[7],3.9 g
same,% MPE (anti-allodynic effect),[8],32.6*** %
same,% MPE (anti-allodynic effect),[9],55.1*** %
same,% MPE (anti-allodynic effect),[10],45.3*** %
same,Mechanical allodynia threshold (PWT (g)),[8],6.4 g
same,Mechanical allodynia threshold (PWT (g)),[9],9.4 g
same,Mechanical allodynia threshold (PWT (g)),[10],8.4 g
same,% MPE (anti-allodynic effect),[11],37.5*** %
same,% MPE (anti-allodynic effect),[12],49*** %
same,% MPE (anti-allodynic effect),[13],52.6*** %
same,Mechanical allodynia threshold (PWT (g)),[11],7.0 g
same,Mechanical allodynia threshold (PWT (g)),[12],8.6 g
same,Mechanical allodynia threshold (PWT (g)),[13],9.3 g
same,duration of a high level of analgesic efficacy,"rat postoperative pain model, conclusion from Embodiment 1",more than 6 h
